From patent US11541055B2, “Inhibitors of human immunodeficiency virus replication” (ViiV Healthcare UK (No. 5) LIMITED, priority 2018, dated 2023)

Experiments:
[1] = system: recombinant NL4-3 virus (Renilla luciferase) in MT-2 cells; experiment: HIV cell culture assay (antiviral activity, luciferase readout); assay type: cell-based; settings: Renilla, NL43
How it was run: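 Antiviral EC50 was derived via the median effect equation from luciferase signal. The signal came from MT-2 cultures infected for 4–5 days with a nef-deleted, Renilla luciferase-expressing NL4-3 reporter virus (made in 293T cells) in the presence of compound dilutions.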

[2] = Compound cytotoxicity, XTT-based colorimetric assay; assay type: cell-based; settings: human; uninfected MT2 cells, day 4, XTT
How it was run: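 Run under the antiviral-assay protocol but without virus. Viability was read on day 4 and CC50 values were derived from the readout.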

| SMILES | EC50 [1] | CC50 at 4 days [2] |
| --- | --- | --- |
| O=C(Cn1nc(C(F)F)c2c1C(F)(F)[C@@H]1C[C@H]21)N[C@@H](Cc1cc(F)cc(F)c1)c1nc2cc(-c3nccc(C(F)F)n3)ccc2c(=O)n1-c1ccc(Cl)c2c(NS(=O)(=O)C3CC3)nn(CC(F)F)c12 (atropisomer, axis not shown; (P)) [Example 86, N—((S)-1-((3P)-3-(4-chloro-3-(cyclopropanesulfonamido)-1-(2,2-difluoroethyl)-1H-indazol-7-yl)-7-(4-(difluoromethyl)pyrimidin-2-yl)-4-oxo-3,4-dihydroquinazolin-2-yl)-2-(3,5-difluorophenyl)ethyl)-2-((3bS,4aR)-3-(difluoromethyl)-5,5-difluoro-3b,4,4a,5-tetrahydro-1H-cyclopropa[3,4]cyclopenta[1,2-c]pyrazol-1-yl)acetamide] | 0.078 nM | > 500 nM |
| Cc1cc(C)nc(-c2ccc3c(=O)n(-c4ccc(Cl)c5c(NS(C)(=O)=O)nn(C)c45)c([C@H](Cc4cc(F)cc(F)c4)NC(=O)Cn4nc(C(F)F)c5c4C(F)(F)[C@@H]4C[C@H]54)nc3c2)c1 (atropisomer, axis not shown; (P)) [Example 1, N—((S)-1-((3P)-3-(4-chloro-1-methyl-3-(methylsulfonamido)-1H-indazol-7-yl)-7-(4,6-dimethylpyridin-2-yl)-4-oxo-3,4-dihydroquinazolin-2-yl)-2-(3,5-difluorophenyl)ethyl)-2-((3bS,4aR)-3-(difluoromethyl)-5,5-difluoro-3b,4,4a,5-tetrahydro-1H-cyclopropa[3,4]cyclopenta[1,2-c]pyrazol-1-yl)acetamide] | 0.15 nM | > 500 nM |
| Cn1nc(NS(C)(=O)=O)c2c(Cl)ccc(-n3c([C@H](Cc4cc(F)cc(F)c4)NC(=O)Cn4nc(C(F)F)c5c4C(F)(F)[C@@H]4C[C@H]54)nc4cc(-c5ccnc(C(C)(C)C)n5)ccc4c3=O)c21 (atropisomer, axis not shown; (P)) [Example 72, N—((S)-1-(7-(2-(tert-butyl)pyrimidin-4-yl)-(3P)-3-(4-chloro-1-methyl-3-(methylsulfonamido)-1H-indazol-7-yl)-4-oxo-3,4-dihydroquinazolin-2-yl)-2-(3,5-difluorophenyl)ethyl)-2-((3bS,4aR)-3-(difluoromethyl)-5,5-difluoro-3b,4,4a,5-tetrahydro-1H-cyclopropa[3,4]cyclopenta[1,2-c]pyrazol-1-yl)acetamide] | 0.43 nM | > 500 nM |
| Cc1cc(C(F)(F)F)nc(-c2ccc3c(=O)n(-c4ccc(Cl)c5c(NS(C)(=O)=O)nn(C)c45)c([C@H](Cc4cc(F)cc(F)c4)NC(=O)Cn4nc(C(F)F)c5c4C(F)(F)[C@@H]4C[C@H]54)nc3c2)n1 [Example 53, N—((S)-1-((3P)-3-(4-chloro-1-methyl-3-(methylsulfonamido)-1H-indazol-7-yl)-7-(4-methyl-6-(trifluoromethyl)pyrimidin-2-yl)-4-oxo-3,4-dihydroquinazolin-2-yl)-2-(3,5-difluorophenyl)ethyl)-2-((3bS,4aR)-3-(difluoromethyl)-5,5-difluoro-3b,4,4a,5-tetrahydro-1H-cyclopropa[3,4]cyclopenta[1,2-c]pyrazol-1-yl)acetamide] | 0.16 nM | > 500 nM |
| Cc1nccc(-c2ccc3c(=O)n(-c4ccc(Cl)c5c(NS(C)(=O)=O)nn(CC(F)(F)F)c45)c([C@H](Cc4cc(F)cc(F)c4)NC(=O)Cn4nc(C(F)F)c5c4C(F)(F)[C@@H]4C[C@H]54)nc3c2)n1 (atropisomer, axis not shown) [Example 100, N-[(1S)-1-{3-[4-chloro-3-methanesulfonamido-1-(2,2,2-trifluoroethyl)-1H-indazol-7-yl]-7-(2-methylpyrimidin-4-yl)-4-oxo-3,4-dihydroquinazolin-2-yl}-2-(3,5-difluorophenyl)ethyl]-2-[(2S,4R)-9-(difluoromethyl)-5,5-difluoro-7,8-diazatricyclo[4.3.0.0^2,^4]nona-1(6),8-dien-7-yl]acetamide] | 0.042 nM | > 500 nM |
